From patent publication US20230295118A1 (EnhancedBio Inc., priority 2022, published 2023)
Read-outs that look alike come from different tables or passages of the source.

Assays:
Format in all cases: cell-based
[1] = system: mantle cell lymphoma cell (Mino or JeKo-1); assay: Antiproliferative effect, MTS cell viability assay
Summary of the method: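 Mino cells treated with compounds at 0, 0.0001, 0.001, 0.01, 0.1, 1 μM for 72 h; palbociclib and abemaciclib as positive controls. Viability by MTS, formazan absorbance read at 490 nm.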

CDK6 = target: T1, CDK6 (Homo sapiens, UniProt Q00534); assay: CDK6 degradation (DC50, Dmax)
T1 construct: endogenous in cells

CDK4 = target: T2, CDK4 (Homo sapiens, UniProt P11802); assay: CDK4 degradation (DC50, Dmax)
T2 construct: endogenous in cells

[2] = 72 h, mantle cell lymphoma cell (Mino or JeKo-1), MTS assay, read-out: IC50 (anti-proliferation)
[3] = Mino cells; 0-1 μM; 72 h; result in words

T1 sequence (Q00534 whole entry): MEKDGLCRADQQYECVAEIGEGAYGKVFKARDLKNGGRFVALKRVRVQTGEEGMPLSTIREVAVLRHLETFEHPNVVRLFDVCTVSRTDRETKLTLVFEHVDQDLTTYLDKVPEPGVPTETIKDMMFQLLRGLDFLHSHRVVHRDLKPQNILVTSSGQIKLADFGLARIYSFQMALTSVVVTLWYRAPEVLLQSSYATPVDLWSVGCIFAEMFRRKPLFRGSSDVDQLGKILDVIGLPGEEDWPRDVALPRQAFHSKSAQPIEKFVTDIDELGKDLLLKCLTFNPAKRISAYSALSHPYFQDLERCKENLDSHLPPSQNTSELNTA
T2 sequence (P11802 whole entry): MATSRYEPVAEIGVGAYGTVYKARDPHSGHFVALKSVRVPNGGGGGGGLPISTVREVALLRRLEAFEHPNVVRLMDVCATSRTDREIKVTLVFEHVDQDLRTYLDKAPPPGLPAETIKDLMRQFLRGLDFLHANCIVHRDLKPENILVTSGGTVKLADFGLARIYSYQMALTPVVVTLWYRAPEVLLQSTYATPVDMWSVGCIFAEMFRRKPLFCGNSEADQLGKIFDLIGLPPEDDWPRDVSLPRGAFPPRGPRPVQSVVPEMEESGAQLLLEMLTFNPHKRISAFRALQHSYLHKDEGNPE

Compound | IC50 [1, 2] | inhibition of cell proliferation of Mino cells [1, 3] | DC50 (CDK6) | Dmax (CDK6) | DC50 (CDK4) | Dmax (CDK4) | IC50 ([1]; mantle cell lymphoma cell (Mino or JeKo-1); MTS assay, 72 h; read-out: IC50 (anti-proliferation))
CC(=O)c1c(C)c2cnc(Nc3ccc(N4CCN(CCCN(C)c5cccc6c5C(=O)N(C5CCC(=O)NC5=O)C6=O)CC4)cn3)nc2n(C2CCCC2)c1=O (stereo not drawn) [Compound 103, 4-((3-(4-(6-((6-acetyl-8-cyclopentyl-5-methyl-7-oxo-7,8-dihydropyrido[2,3-d]pyrimidin-2-yl)amino)pyridin-3-yl)piperazin-1-yl)propyl)(methyl)amino)-2-(2,6-dioxopiperidin-3-yl) isoindoline-1,3-dione] | < 50 nM | dose-dependent inhibition of cell proliferation | 50 to 200 nM | > 60% | 50 to 200 nM | > 60% | –
Cc1nc2c(F)cc(-c3nc(Nc4ccc(CN5CCN(CCNc6cccc7c6C(=O)N(C6CCC(=O)NC6=O)C7=O)CC5)cn4)ncc3F)cc2n1C(C)C (stereo not drawn) [Compound 92, 2-(2,6-dioxopiperidin-3-yl)-4-((2-(4-((6-((5-fluoro-4-(4-fluoro-1 isopropyl-2-methyl-1H-benzo[d]imidazol-6-yl)pyrimidin-2-yl)amino)pyridin-3-yl)methyl)piperazin-1-yl)ethyl)amino) isoindoline-1,3-dione] | < 50 nM | dose-dependent inhibition of cell proliferation | < 50 nM | > 80% | 50 to 200 nM | > 80% | –
Cc1nc2c(F)cc(-c3nc(Nc4ccc(CN5CCN(CC6CCN(c7ccc(N8CCC(=O)NC8=O)cc7)CC6)CC5)cn4)ncc3F)cc2n1C(C)C [Compound 108, 1-(4-(4-((4-((6-((5-fluoro-4-(4-fluoro-1-isopropyl-2-methyl-1H-benzo[d]imidazol-6-yl)pyrimidin-2-yl)amino)pyridin-3-yl)methyl)piperazin-1-yl)methyl)piperidin-1-yl)phenyl) dihydropyrimidine-2,4(1H,3H)-dione] | < 50 nM | – | < 50 nM | > 80% | < 50 nM | > 80% | –
CC(=O)c1c(C)c2cnc(Nc3ccc(N4CCN(CC5CCN(c6ccc(N7CCC(=O)NC7=O)cc6)CC5)CC4)cn3)nc2n(C2CCCC2)c1=O [Compound 112, 1-(4-(4-((4-(6-((6-acetyl-8-cyclopentyl-5-methyl-7-oxo-7,8-dihydropyrido[2,3-d]pyrimidin-2-yl)amino)pyridin-3-yl)piperazin-1-yl)methyl)piperidin-1-yl)phenyl) dihydropyrimidine-2,4(1H,3H)-dione] | < 50 nM | – | 50 to 200 nM | > 80% | < 50 nM | > 80% | –
CC(=O)c1c(C)c2cnc(Nc3ccc(N4CCN(C5CCN(C(=O)Nc6ccc7c(c6)CN(C6CCC(=O)NC6=O)C7=O)CC5)CC4)cn3)nc2n(C2CCCC2)c1=O (stereo not drawn) [Compound 40, 4-(4-(6-((6-acetyl-8-cyclopentyl-5-methyl-7-oxo-7,8-dibydropyrido[2,3-d]pyrimidin-2-yl)amino)pyridin-3-yl)piperazin-1-yl)-N-(2-(2,6-dioxopiperidin-3-yl)-1-oxoisoindolin-5-yl)piperidine-1-carboxamide] | < 50 nM | – | 50 to 200 nM | > 80% | 50 to 200 nM | > 60% | –
CC(=O)c1c(C)c2cnc(Nc3ccc(N4CCN(CC5CCN(C(=O)Nc6ccc7c(c6)CN(C6CCC(=O)NC6=O)C7=O)CC5)CC4)cn3)nc2n(C2CCCC2)c1=O (stereo not drawn) [Compound 42, 4-((4-(6-((6-acetyl-8-cyclopentyl-5-methyl-7-oxo-7,8-dihydropyrido[2,3-d]pyrimidin-2-yl)amino)pyridin-3-yl)piperazin-1-yl)methyl)-N-(2-(2,6-dioxopiperidin-3-yl)-1-oxoisoindolin-5-yl)piperidine-1-carboxamide] | 50 to 200 nM | – | 50 to 200 nM | > 80% | 50 to 200 nM | > 80% | –
CC(=O)c1c(C)c2cnc(Nc3ccc(N4CCN(C(=O)N5CCN(CCN6CCN(c7ccc8c(c7)C(=O)N(C7CCC(=O)NC7=O)C8=O)CC6)CC5)CC4)cn3)nc2n(C2CCCC2)c1=O (stereo not drawn) [Compound 21, 5-(4-(2-(4-(4-(6-((6-acetyl-8-cyclopentyl-5-methyl-7-oxo-7,8-dihydropyrido[2,3-d]pyrimidin-2-yl)amino)pyridin-3-yl)piperazine-1-carbonyl)piperazin-1-yl)ethyl)piperazin-1-yl)-2-(2,6-dioxopiperidin-3-yl)isoindoline-1,3-dione] | 50 to 200 nM | – | 50 to 200 nM | > 60% | 50 to 200 nM | > 60% | –
CC(=O)c1c(C)c2cnc(Nc3ccc(N4CCN(CCCNc5cc6c(cc5F)C(=O)N(C5CCC(=O)NC5=O)C6)CC4)cn3)nc2n(C2CCCC2)c1=O (stereo not drawn) [Compound 52, 3-(5-((3-(4-(6-((6-acetyl-8-cyclopentyl-5-methyl-7-oxo-7,8-dihydropyrido[2,3-d]pyrimidin-2-yl)amino)pyridin-3-yl)piperazin-1-yl)propyl)amino)-6-fluoro-1-oxoisoindolin-2-yl) piperidine-2,6-dione] | < 50 nM | – | 50 to 200 nM | > 80% | 50 to 200 nM | > 80% | –
CC(=O)c1c(C)c2cnc(Nc3ccc(N4CCN(C(=O)N5CCC(CN6CCC(c7ccc8c(c7)C(=O)N(C7CCC(=O)NC7=O)C8=O)CC6)CC5)CC4)cn3)nc2n(C2CCCC2)c1=O (stereo not drawn) [Compound 17, 5-(1-((1-(4-(6-((6-acetyl-8-cyclopentyl-5-methyl-7-oxo-7,8-dihydropyrido[2,3-d]pyrimidin-2-yl)amino)pyridin-3-yl)piperazine-1-carbonyl)piperidin-4-yl)methyl)piperidin-4-yl)-2-(2,6-dioxopiperidin-3-yl)isoindoline-1,3-dione] | 50 to 200 nM | – | 50 to 200 nM | > 50% | 50 to 200 nM | > 50% | –
CC(=O)c1c(C)c2cnc(Nc3ccc(N4CCN(C(=O)N5CCN(c6ccc7c(c6)C(=O)N(C6CCC(=O)NC6=O)C7=O)CC5)CC4)cn3)nc2n(C2CCCC2)c1=O (stereo not drawn) [Compound 1, 5-(4-(4-(6-((6-acetyl-8-cyclopentyl-5-methyl-7-oxo-7,8-dihydropyrido[2,3-d]pyrimidin-2-yl)amino)pyridin-3-yl)piperazine-1-carbonyl)piperazin-1-yl)-2-(2,6-dioxopiperidin-3-yl) isoindoline-1,3-dione] | – | – | < 50 nM | > 60% | 50 to 200 nM | > 60% | < 50 nM
CC(=O)c1c(C)c2cnc(Nc3ccc(N4CCN(CC5CCN(C(=O)N6CCC(C7CCN(c8ccc9c(c8)C(=O)N(C8CCC(=O)NC8=O)C9=O)CC7)CC6)CC5)CC4)cn3)nc2n(C2CCCC2)c1=O (stereo not drawn) [Compound 82, 5-(1′-(4-((4-(6-((6-acetyl-8-cyclopentyl-5-methyl-7-oxo-7,8-dihydropyrido[2,3-d]pyrimidin-2-yl)amino)pyridin-3-yl)piperazin-1-yl)methyl)piperidine-1-carbonyl)-[4,4′-bipiperidin]-1-yl)-2-(2,6-dioxopiperidin-3-yl) isoindoline-1,3-dione] | > 200 nM | – | > 200 nM | > 50% | > 200 nM | > 50% | –
